What was measured:
Type in all cases: cell-based
[1] = system: Enterococcus faecalis 276; assay: MIC, standard broth micro-dilution assay, EF 276
Method: (§1) The antibacterial efficacy of the present compounds is illustrated by Table III. The minimal inhibitory concentrations (MICs) were determined using a standard broth micro-dilution assay.

[2] = system: Staphylococcus haemolyticus 415; assay: MIC, standard broth micro-dilution assay, SH 415
Method: as §1

[3] = system: Staphylococcus aureus 489; assay: MIC, standard broth micro-dilution assay, SA 489
Method: as §1

[4] = system: Staphylococcus aureus X400; assay: MIC, standard broth micro-dilution assay, SA X400
Method: as §1

[5] = system: Enterococcus faecium 180-1; assay: MIC, standard broth micro-dilution assay, EF 180-1
Method: as §1

[6] = system: Escherichia coli EC14; assay: MIC, standard broth micro-dilution assay, EC 14
Method: as §1

[7] = system: Staphylococcus aureus S13E
Method: as §1

[8] = system: Staphylococcus haemolyticus 105; assay: MIC, standard broth micro-dilution assay, SH 105
Method: as §1

[9] = system: Staphylococcus aureus X778; assay: MIC, standard broth micro-dilution assay, SA X778
Method: as §1

[10] = system: Staphylococcus epidermidis 270; assay: MIC, standard broth micro-dilution assay, SE 270
Method: as §1

[11] = system: Staphylococcus aureus 446; assay: MIC, standard broth micro-dilution assay, SA 446
Method: as §1

[12] = system: Haemophilus influenzae RD; assay: MIC, standard broth micro-dilution assay, HFRD
Method: as §1

[13] = system: Sensitive Enterococcus faecium and faecalis; assay: MIC, standard broth micro-dilution assay, Sensitive; conditions: geometric mean of 4-6 isolates
Method: as §1

[14] = system: Enterococcus gallinarum 245; assay: MIC, standard broth micro-dilution assay, EG 245
Method: as §1

[15] = system: Staphylococcus aureus 447; assay: MIC, standard broth micro-dilution assay, SA 447
Method: as §1

[16] = system: Enterococcus faecalis 2041; assay: MIC, standard broth micro-dilution assay, EF 2041
Method: as §1

[17] = system: Staphylococcus aureus SA1199A; assay: MIC, standard broth micro-dilution assay, SA 1199A
Method: as §1

[18] = system: Staphylococcus aureus 491; assay: MIC, standard broth micro-dilution assay, SA 491
Method: as §1

[19] = system: Resistant Enterococcus faecium and faecalis; assay: MIC, standard broth micro-dilution assay, Resistant; conditions: geometric mean of 4-6 isolates
Method: as §1

[20] = system: Enterococcus faecium 180; assay: MIC, standard broth micro-dilution assay, EF 180
Method: as §1

[21] = system: Staphylococcus aureus SA1199; assay: MIC, standard broth micro-dilution assay, SA 1199
Method: as §1

SMILES | minimal inhibitory concentration (MIC), EF 276 [1] | minimal inhibitory concentration (MIC), SH 415 [2] | minimal inhibitory concentration (MIC), SA 489 [3] | minimal inhibitory concentration (MIC), SA X400 [4] | minimal inhibitory concentration (MIC), EF 180-1 [5] | minimal inhibitory concentration (MIC), EC 14 [6] | minimal inhibitory concentration (MIC), SA S13E [7] | minimal inhibitory concentration (MIC), SH 105 [8] | minimal inhibitory concentration (MIC), SA X778 [9] | minimal inhibitory concentration (MIC), SE 270 [10] | minimal inhibitory concentration (MIC), SA 446 [11] | minimal inhibitory concentration (MIC), HFRD [12] | minimal inhibitory concentration (MIC), Sensitive [13] | minimal inhibitory concentration (MIC), EG 245 [14] | minimal inhibitory concentration (MIC), SA 447 [15] | minimal inhibitory concentration (MIC), EF 2041 [16] | minimal inhibitory concentration (MIC), SA 1199A [17] | minimal inhibitory concentration (MIC), SA 491 [18] | minimal inhibitory concentration (MIC), Resistant [19] | minimal inhibitory concentration (MIC), EF 180 [20] | also measured
CC1OC(OC2C(Oc3c4cc5cc3Oc3ccc(cc3Cl)[C@@H](O)[C@@H](NC(=O)c3ccc(-c6ccccc6)cc3)C(=O)N[C@@H](CC(N)=O)C(=O)N[C@H]5C(=O)N[C@H]3C(=O)NC(C(=O)N[C@H](C(=O)O)c5cc(O)cc(O)c5-c5cc3ccc5O)[C@H](OC3CC(C)(N)C(O)C(C)O3)c3ccc(c(Cl)c3)O4)OC(CO)C(O)C2O)CC(C)(N)C1O (stereo partly drawn) [Example 1, N^1-(p-phenylbenzoyl)desleucylA82846B] | 0.125 | 4 | 0.5 | 0.5 | 0.125 | >64 | 0.25 | 2 | 0.125 | 0.5 | 1 | no growth | 4 | 2 | 0.25 | 0.125 | ≦.06 | 0.5 | >128 | 64 | minimal inhibitory concentration (MIC), SA 1199 [21]: 0.125
CC1OC(OC2c3ccc(c(Cl)c3)Oc3cc4cc(c3OC3OC(CO)C(O)C(O)C3OC3CC(C)(NCc5ccc(-c6ccccc6)cc5)C(O)C(C)O3)Oc3ccc(cc3Cl)C(O)C(NC(=O)C3CCCN3)C(=O)NC(CC(N)=O)C(=O)NC4C(=O)NC3C(=O)NC2C(=O)NC(C(=O)O)c2cc(O)cc(O)c2-c2cc3ccc2O)CC(C)(N)C1O [Example 12, N^1-D-proline derivative of N^DISACC-(p-phenylbenzyl)desleucylA82846B] | 1 | 0.25 | 2 | 1 | ≦.06 | >64 | 2 | 0.125 | 0.25 | 0.125 | 2 | 32 | 0.19 | 0.25 | 0.5 | 0.25 | 0.25 | 0.5 | 2.8 | 1 | minimal inhibitory concentration (MIC), SA 1199 [21]: 1
CC(C)CC(N)C(=O)NC1C(=O)NC(CC(N)=O)C(=O)NC2C(=O)NC3C(=O)NC(C(=O)NC(C(=O)O)c4cc(O)cc(O)c4-c4cc3ccc4O)C(OC3CC(C)(N)C(O)C(C)O3)c3ccc(c(Cl)c3)Oc3cc2cc(c3OC2OC(CO)C(O)C(O)C2OC2CC(C)(NCc3ccc(-c4ccccc4)cc3)C(O)C(C)O2)Oc2ccc(cc2Cl)C1O [Example 27, N^1-L-leucine derivative of N^DISACC-(p-phenylbenzyl)desleucylA82846B] | 1 | 2 | 4 | 2 | 0.25 | >64 | 2 | 0.125 | 1 | 0.25 | 2 | 64 | 1 | 0.5 | 1 | 1 | 0.5 | 1 | 16 | 4 | minimal inhibitory concentration (MIC), SA 1199 [21]: 1
CC1OC(OC2c3ccc(c(Cl)c3)Oc3cc4cc(c3OC3OC(CO)C(O)C(O)C3OC3CC(C)(NCc5ccc(-c6ccccc6)cc5)C(O)C(C)O3)Oc3ccc(cc3Cl)C(O)C(NC(=O)C3CCCN3)C(=O)NC(CC(N)=O)C(=O)NC4C(=O)NC3C(=O)NC2C(=O)NC(C(=O)O)c2cc(O)cc(O)c2-c2cc3ccc2O)CC(C)(N)C1O [Example 32, N^1-L-proline derivative of N^DISACC-(p-phenylbenzyl)desleucylA82846B] | 2 | 0.5 | 1 | 2 | 0.125 | >64 | 0.25 | 0.125 | 0.5 | 0.125 | 1 | >64 | 0.76 | 0.5 | 1 | 1 | ≦.06 | 0.125 | 16 | 2 | minimal inhibitory concentration (MIC), SA 1199 [21]: 0.25
CC1OC(OC2c3ccc(c(Cl)c3)Oc3cc4cc(c3OC3OC(CO)C(O)C(O)C3OC3CC(C)(NCc5ccc(-c6ccccc6)cc5)C(O)C(C)O3)Oc3ccc(cc3Cl)C(O)C(NC(=O)C(N)Cc3ccc(Cl)cc3)C(=O)NC(CC(N)=O)C(=O)NC4C(=O)NC3C(=O)NC2C(=O)NC(C(=O)O)c2cc(O)cc(O)c2-c2cc3ccc2O)CC(C)(N)C1O [Example 22, N^1-[D-3-(p-chlorophenyl)alanine] derivative of N^DISACC-(p-phenylbenzyl)desleucylA82846B] | 1 | 4 | 1 | 0.5 | ≦.06 | >64 | 2 | 2 | 1 | 0.25 | 1 | >64 | 0.66 | 0.25 | 1 | 1 | 0.25 | 0.5 | 6.7 | 2 | minimal inhibitory concentration (MIC), SA 1199 [21]: 2
CC1OC(OC2c3ccc(c(Cl)c3)Oc3cc4cc(c3OC3OC(CO)C(O)C(O)C3OC3CC(C)(NCc5ccc(-c6ccccc6)cc5)C(O)C(C)O3)Oc3ccc(cc3Cl)C(O)C(NC(=O)c3ccc(-c5ccccc5)cc3)C(=O)NC(CC(N)=O)C(=O)NC4C(=O)NC3C(=O)NC2C(=O)NC(C(=O)O)c2cc(O)cc(O)c2-c2cc3ccc2O)CC(C)(N)C1O (stereo not drawn) [Example 6, N^1-(p-phenylbenzoyl)-N^DISACC-(p-phenylbenzyl)desleucylA82846B] | 2 | 2 | 2 | 1 | 0.25 | >64 | 1 | 0.5 | 0.5 | 0.5 | 1 | >64 | 3.5 | 1 | 2 | 2 | 0.125 | 0.5 | 38 | 2 | minimal inhibitory concentration (MIC), SA 1199 [21]: 0.5

Reference: patent publication US6670446B1, “N1 modified glycopeptides” (Eli Lilly and Company, priority 1998, dated 2003)
